In article PMC4865847, “Putative histidine kinase inhibitors with antibacterial effect against multi-drug resistant clinical isolates identified by in vitro and in silico screens” (Scientific Reports, 2016):
≈ marks a conversion by molar mass, not a printed value. Like-named read-outs stand apart in the source and are kept apart here.

How the values were obtained:
E. coli PhoR (PhoR^E) = biological target: T1, E. coli PhoR (PhoR^E) (Escherichia coli, UniProt P08400); experiment: In vitro autophosphorylation kinase assay with γ-32P-ATP, PhoR^E; format: biochemical; details: autophosphorylation, one time point (30 sec), 10% DMSO; read-out: IC50 PhoR^E
T1 construct: The catalytic portion (DHp and CA domain) of E. coli PhoR (PhoR^E); made in house; host or cells: E. coli RIL
T1 sequence (P08400 210-425): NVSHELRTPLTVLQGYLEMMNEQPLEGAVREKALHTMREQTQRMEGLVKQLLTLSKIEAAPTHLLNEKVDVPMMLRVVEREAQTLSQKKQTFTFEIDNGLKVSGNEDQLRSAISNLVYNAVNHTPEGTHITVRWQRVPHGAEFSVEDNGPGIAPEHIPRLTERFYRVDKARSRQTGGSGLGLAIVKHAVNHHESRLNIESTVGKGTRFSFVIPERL
Experimental: (§1) To evaluate the inhibitory capacity of selected hits from DSF, SBVS and LBSS in vitro autophosphorylation kinase assays with γ-^32P-ATP were performed as previously described. Ligands were dissolved in 100% DMSO. […] Controls lacking ligands contained an equal concentration of DMSO. Inhibition of autophosphorylation was determined by incubating 0.12 mg/ml (≈4 μM) HK and up to 20 mM fragment in kinase buffer (50 mM Tris HCl, pH 8.5, 50 mM KCl, 5 mM MgCl2, 0.5 mM EDTA and 0.1 mM DTT). Autophosporylation reactions were initiated by addition of 0.1 μCi/μl γ-^32P-ATP containing from 0.03 to 0.06 μM ATP (final concentrations). Autophosphorylation was quenched with 2xSDS-PAGE sample buffer supplemented with 50 mM EDTA. […] After electrophoresis, the bottoms of the gels were removed to lower the background from the unincorporated radiolabeled ATP. Gels were dried without staining on a Bio-Rad Gel Air drying system and the phosphorylated protein was quantified by phosphor-imaging. Prism GraphPad was used for curve fitting and statistical analysis.

S. pneumoniae WalK = biological target: T2, S. pneumoniae WalK (Streptococcus pneumoniae, UniProt Q8DPL8); experiment: In vitro autophosphorylation kinase assay with γ-32P-ATP, WalK; format: biochemical; details: for IC50: autophosphorylation, one time point (30 sec), 10% DMSO, read-out: IC50 WalK
T2 construct: WalK (amino acids from 208 to 449); N-terminal His6-3C site of vector pOPINF (own knowledge of the vector); made in house; host or cells: E. coli RIL
T2 sequence (Q8DPL8 208-449): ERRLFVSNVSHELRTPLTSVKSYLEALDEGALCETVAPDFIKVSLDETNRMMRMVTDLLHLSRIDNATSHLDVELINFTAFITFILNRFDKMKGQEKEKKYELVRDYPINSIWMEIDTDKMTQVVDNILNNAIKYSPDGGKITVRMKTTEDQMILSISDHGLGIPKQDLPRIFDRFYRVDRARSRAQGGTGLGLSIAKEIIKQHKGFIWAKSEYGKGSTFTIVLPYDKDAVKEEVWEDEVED
Experimental: as §1

Staphylococcus aureus = experiment: Antibacterial susceptibility testing (MIC/MBC), S. aureus; format: cell-based; details: Staphylococcus aureus; for MBC: DSM20231, strain DSM 20231, read-out: MBC S. aureus DSM 20231
Experimental: (§2) Minimal inhibitory concentrations (MICs) were determined following a standard double-dilution method. […] For S. pneumoniae MICs were determined by adapting the standard double-dilution method to anaerobic conditions and of this microorganism (use of Todd Hewitt Yeast extract with 200 U/mL of catalase and continuous monitoring of growth).

[1] = test system: Staphylococcus epidermidis; experiment: Antibacterial susceptibility testing (MIC/MBC), S. epidermidis; format: cell-based; details: Staphylococcus epidermidis; for MBC: DSM20044, strain DSM 20044
Experimental: as §2

Escherichia coli = experiment: Antibacterial susceptibility testing (MIC/MBC), E. coli; format: cell-based; details: Escherichia coli
Experimental: as §2

Streptococcus suis = experiment: Antibacterial susceptibility testing (MIC), S. suis; format: cell-based; details: for MIC: Streptococcus suis, read-out: MIC Streptococcus suis 3881/S10, strain 3881/S10
Experimental: (§3) Bacterial strains used in this study for antibacterial susceptibility testing (Table S5) were propagated using standard microbiological procedures. Minimal inhibitory concentrations (MICs) were determined following a standard double-dilution method. MICs were recorded as the lowest concentration of the compound where no visible growth was observed. After plating the dilutions around the MIC or growing them in fresh MH media, minimal bactericidal concentration (MBC) was recorded as the lowest concentration of the compound at which no colonies were formed or no growth was observed, respectively. For S. pneumoniae MICs were determined by adapting the standard double-dilution method to anaerobic conditions and of this microorganism (use of Todd Hewitt Yeast extract with 200 U/mL of catalase and continuous monitoring of growth).

Streptococcus pneumoniae = experiment: Antibacterial susceptibility testing (MIC), S. pneumoniae; format: cell-based; details: strain 49619
Experimental: as §3

Acinetobacter baumannii = experiment: Antibacterial susceptibility testing (MIC), A. baumannii; format: cell-based
Experimental: as §3

[2] = test system: Stenotrophomonas maltophilia; experiment: Antibacterial susceptibility testing (MIC), S. maltophilia; format: cell-based
Experimental: as §3

Klebsiella pneumoniae = experiment: Antibacterial susceptibility testing (MIC), K. pneumoniae; format: cell-based; details: Klebsiella pneumoniae, ATCC700603, strain ATCC 700603
Experimental: as §3

Pseudomonas aeruginosa = experiment: Antibacterial susceptibility testing (MIC), P. aeruginosa; format: cell-based; details: Pseudomonas aeruginosa, ATCC27853; strain ATCC 27853
Experimental: as §3

Hemolysis assay = format: cell-based; details: human
Experimental: Hemolytic activity against human erythrocytes taken from a healthy donor was measured as previously described. The hemolysis experiments were carried out in accordance with the guidelines of the United Arab Emirates University (UAEU) Research Ethics Review Board. All experimental protocols were approved by the Research Ethics Review Board of UAEU and informed consent was obtained from all donors.

[3] = ATCC reference strain 25293, read-out: MIC S. aureus 25293
[4] = MRSA clinical isolate 127/08, read-out: MIC S. aureus 127/08
[5] = MRSA clinical isolate 145/08, read-out: MIC S. aureus 145/08
[6] = MRSA clinical isolate 274/08, read-out: MIC S. aureus 274/08
[7] = MRSA, MRSA clinical isolate S908, read-out: MIC S. aureus S908
[8] = MRSA, MRSA clinical isolate T4/6, read-out: MIC S. aureus T4/6
[9] = MRSA, MRSA clinical isolate V4180, read-out: MIC S. aureus V4180
[10] = MRSA, summary over strains, read-out: MICs for the MRSA strains and S. aureus 25293
[11] = strain RP62A (biofilm producer), read-out: MIC S. epidermidis RP62A
[12] = ATCC25276, strain ATCC 25276, read-out: MIC E. coli ATCC 25276
[13] = strain CFT 073, read-out: MIC E. coli CFT 073
[14] = MDR clinical isolate NM8, read-out: MIC A. baumannii NM8
[15] = clinical isolate B32/1, read-out: MIC S. maltophilia B32/1

| SMILES | IC50 (E. coli PhoR (PhoR^E)) | IC50 (S. pneumoniae WalK) | MIC (Staphylococcus aureus; [3]) | MBC (Staphylococcus aureus) | MIC (Staphylococcus aureus; [4]) | MIC (Staphylococcus aureus; [5]) | MIC (Staphylococcus aureus; [6]) | MIC (Staphylococcus aureus; [7]) | MIC (Staphylococcus aureus; [8]) | MIC (Staphylococcus aureus; [9]) | MIC (Staphylococcus aureus; [10]) | MBC [1] | MIC [1, 11] | MIC (Escherichia coli; [12]) | MIC (Escherichia coli; [13]) | MIC (Streptococcus suis) | MIC (Streptococcus pneumoniae) | MIC (Acinetobacter baumannii; [14]) | MIC [2, 15] | MIC (Klebsiella pneumoniae) | also measured |
| --- | --- | --- | --- | --- | --- | --- | --- | --- | --- | --- | --- | --- | --- | --- | --- | --- | --- | --- | --- | --- | --- |
| Nc1nc(-c2ccccc2Cl)cs1 [F1.6] | > 2000 µM | < 2000 µM | 250 µg/mL (≈ 1190 µM) | 250 µg/mL (≈ 1190 µM) | 250 µg/mL (≈ 1190 µM) | 250 µg/mL (≈ 1190 µM) | 500 µg/mL (≈ 2370 µM) | 500 µg/mL (≈ 2370 µM) | 250 µg/mL (≈ 1190 µM) | > 500 µg/mL | 125 to 500 µg/mL (≈ 593 to 2370 µM) | 500 µg/mL (≈ 2370 µM) | > 500 µg/mL | > 500 µg/mL | > 500 µg/mL | > 500 µg/mL | 256 µg/mL (≈ 1220 µM) | > 500 µg/mL | > 500 µg/mL | > 500 µg/mL | inhibition at 2000 µM (S. pneumoniae WalK; 2 mM, 30 sec, compared to negative control): > 50%; MIC ([1]; clinical isolate T7/3, read-out: MIC S. epidermidis T7/3): 125 µg/mL (≈ 593 µM); MIC ([1]; clinical isolate T37/8, read-out: MIC S. epidermidis T37/8): > 500 µg/mL; MIC ([1]; clinical isolate T6119, read-out: MIC S. epidermidis T6119): > 500 µg/mL; MIC ([1]; strain RP62A/1 (non-biofilm producer), read-out: MIC S. epidermidis RP62A/1): > 500 µg/mL; MIC ([1]; summary over clinical isolates, read-out: MICs for S. epidermidis clinical isolates): 125 µg/mL (≈ 593 µM); MIC (Pseudomonas aeruginosa): > 500 µg/mL; HC50 (Hemolysis assay): > 500 µg/mL |
| CC(C)NCC(O)COc1cccc2[nH]c3ccccc3c12 (stereo not drawn) [F2.4] | > 2000 µM | > 2000 µM | 125 µg/mL (≈ 419 µM) | 250 µg/mL (≈ 838 µM) | 500 µg/mL (≈ 1680 µM) | 250 µg/mL (≈ 838 µM) | 500 µg/mL (≈ 1680 µM) | 500 µg/mL (≈ 1680 µM) | > 500 µg/mL | 500 µg/mL (≈ 1680 µM) | 125 to 500 µg/mL (≈ 419 to 1680 µM) | 500 µg/mL (≈ 1680 µM) | > 500 µg/mL | 500 µg/mL (≈ 1680 µM) | 500 µg/mL (≈ 1680 µM) | 125 µg/mL (≈ 419 µM) | 64 µg/mL (≈ 214 µM) | 500 µg/mL (≈ 1680 µM) | 500 µg/mL (≈ 1680 µM) | > 500 µg/mL | MBC (Escherichia coli; strain CFT 073, read-out: MBC E. coli CFT 073): 500 µg/mL (≈ 1680 µM); MIC Streptococcus suis 3881/S10 (Streptococcus suis; strain 3881/S10): 250 µg/mL (≈ 838 µM); MIC (Acinetobacter baumannii; MDR clinical isolate NM35, read-out: MIC A. baumannii NM35): > 500 µg/mL; MIC (Acinetobacter baumannii; MDR clinical isolate NM75, read-out: MIC A. baumannii NM75): > 500 µg/mL; MIC (Acinetobacter baumannii; MDR clinical isolate NM109, read-out: MIC A. baumannii NM109): 500 µg/mL (≈ 1680 µM); MIC (Acinetobacter baumannii; MDR clinical isolate NM124, read-out: MIC A. baumannii NM124): 500 µg/mL (≈ 1680 µM); MIC (Acinetobacter baumannii; summary over strains, read-out: MICs for A. baumannii strains): 500 µg/mL (≈ 1680 µM); MIC ([2]; clinical isolate B5/5, read-out: MIC S. maltophilia B5/5): > 500 µg/mL; MIC ([2]; clinical isolate B6/2, read-out: MIC S. maltophilia B6/2): 500 µg/mL (≈ 1680 µM); MIC ([2]; summary over strains, read-out: MICs for S. maltophilia strains): 500 µg/mL (≈ 1680 µM); MIC (Pseudomonas aeruginosa): > 500 µg/mL; HC50 (Hemolysis assay): > 500 µg/mL |
